Laboratory results as given in patent publication US5885972A, “L-pyranosyl nucleosides” (Genencor International, Inc., priority 1996, dated 1999).
Converted amounts (≈) assume the structure as drawn. Read-outs that look alike come from different tables or passages of the source. One block for each compound: values may come before it.

Tests used:
[1] = In vitro survival of control bone marrow cells exposed to compound (Table I); assay type: cell-based; settings: human, 10 μg/ml
From the text: (§1) In vitro activity against certain human tumor cell lines. CELL LINES: Eight different established human cell lines (CALU (lung), COLO320 (colon), H578St (breast), HT-29 (colon), MCF-7 (breast), OM-1 (colon), SKLU (lung), and SKMES (lung) and two control cell lines (bone marrow cell lines and/or fibroblasts) were utilized. All cell lines were obtained from the Tumor Cloning Laboratory, Institute for Drug Development, Cancer Therapy and Research Center, San Antonio, Tex. All cell lines grew as monolayers in the appropriate culture medium supplemented with heat-inactivated calf serum. All reagents were obtained from Grand Island Biological Co., Grand Island, N.Y.
IN VITRO EXPOSURE OF TUMOR CELLS TO COMPOUNDS: Stock solutions of intravenous (iv) formulations of certain of the compounds of the present invention (as shown in Table I below), as well as intravenous formulations of 5-FU (control) were used. The iv formulations of the compounds of the present invention were prepared with sterile buffered saline and stored at -70° C. until required for testing.
(§2) Following trypsinization, tumor cells were suspended in tissue culture medium and exposed to the antitumor agents continuously at three different concentrations: 10, 1 and 0.1 μg/ml.
RADIOMETRIC MEASUREMENT OF GROWTH INHIBITION: Growth inhibition was assessed with the BACTEC System 460 (Johnston Laboratories, Towson, Md.) after addition of the antitumor agent to the cells in the respective growth medium containing ^14 C-glucose at a final concentration of 2 μCi/ml. (See generally, C. Arteaga, et al., A Radiometric Method for Evaluation of Chemotherapy Sensitivity: Results of Screening a Panel of Human Breast Cancer Cell Lines, Cancer Research, 47, 6248-6253, (1987).)
(§3) Two mls of the tumor cell suspension containing radioactive glucose were seeded into sterile, disposable 15 ml vials by injection through self-sealing rubber-aluminum caps. […] The seeded vials were then incubated at 37° C. Measurement of the release of ^14 CO2 resulting from the metabolism of ^14 C-glucose were performed on days 6, 9, 12, and 15 in the BACTEC instrument. This instrument flushes the ^14 CO2 containing air out of the vials into an ionization chamber that converts dpm to growth index values. Chemotherapy sensitivity was calculated by comparing the growth index values of drug-treated vials to that observed in control vials. Each data point represents triplicate values.
(§4) All compounds were compared on an equimilimolar level.
The data presented in Table I are compared to results achieved with 5-FU as the control. All compounds were dosed on an equimilimolar basis. Inhibitory concentration (IC 50) is defined as the concentration required to kill 50% of the untreated cancer cells. Although the IC 50 of certain of the compounds listed in Table I may be higher than that for 5-FU (the control), the compounds of the present invention are generally less toxic to normal cells such as bone marrow or fibroblasts. […] Additionally, because of their lower toxicity to normal cells, it is anticipated that the present compounds may be dosed at a higher rate to selectively increase toxicity to the cancer cells. In this regard, a therapeutic ratio for a given compound is typically determined by the following calculation. [formula] A therapeutic ratio of <80% is considered active. In Vivo Evaluation

HS578T [2] = experiment: In vitro radiometric (BACTEC) growth inhibition of human tumor cell line HS578T (breast); assay type: cell-based; settings: Hs-578T; for viability at 10 µg/mL: 10 μg/ml, read-out: % survival tumor
From the text: as §1
(§5) The iv formulations of the compounds of the present invention were prepared with sterile buffered saline and stored at -70° C. until required for testing.
as §2
(§6) RADIOMETRIC MEASUREMENT OF GROWTH INHIBITION: Growth inhibition was assessed with the BACTEC System 460 (Johnston Laboratories, Towson, Md.) after addition of the antitumor agent to the cells in the respective growth medium containing ^14 C-glucose at a final concentration of 2 μCi/ml.
as §3, with “Chemotherapy sensitivity was calculated by comparing the growth index values of drug-treated vials to that observed in control vials.” left out
as §4
(§7) All compounds were dosed on an equimilimolar basis. […] [formula] A therapeutic ratio of <80% is considered active. In Vivo Evaluation

SKMES = experiment: In vitro radiometric (BACTEC) growth inhibition of human tumor cell line SKMES (lung); assay type: cell-based
From the text: as §1, §5, §2, §6
as §3, with “Chemotherapy sensitivity was calculated by comparing the growth index values of drug-treated vials to that observed in control vials.” left out
as §4, §7

SKLU = experiment: In vitro radiometric (BACTEC) growth inhibition of human tumor cell line SKLU (lung); assay type: cell-based; settings: for viability at 10 µg/mL: 10 μg/ml
From the text: as §1, §5, §2, §6
as §3, with “Chemotherapy sensitivity was calculated by comparing the growth index values of drug-treated vials to that observed in control vials.” left out
as §4, §7

MCF-7 = experiment: In vitro radiometric (BACTEC) growth inhibition of human tumor cell line MCF-7 (breast); assay type: cell-based; settings: for viability at 10 µg/mL: MCF7, MCF-7, 10 μg/ml
From the text: as §1, §5, §2, §6
as §3, with “Chemotherapy sensitivity was calculated by comparing the growth index values of drug-treated vials to that observed in control vials.” left out
as §4, §7

OM-1 = experiment: In vitro radiometric (BACTEC) growth inhibition of human tumor cell line OM-1 (colon); assay type: cell-based; settings: for viability at 10 µg/mL: OM-1, 10 μg/ml
From the text: as §1, §5, §2, §6
as §3, with “Chemotherapy sensitivity was calculated by comparing the growth index values of drug-treated vials to that observed in control vials.” left out
as §4, §7

HT-29 = experiment: In vitro radiometric (BACTEC) growth inhibition of human tumor cell line HT-29 (colon); assay type: cell-based; settings: for viability at 10 µg/mL: 10 μg/ml
From the text: as §1, §5, §2, §6
as §3, with “Chemotherapy sensitivity was calculated by comparing the growth index values of drug-treated vials to that observed in control vials.” left out
as §4, §7

CALU = experiment: In vitro radiometric (BACTEC) growth inhibition of human tumor cell line CALU (lung); assay type: cell-based
From the text: as §1, with “N.Y. […]” for “N.Y.”
(§8) RADIOMETRIC MEASUREMENT OF GROWTH INHIBITION: Growth inhibition was assessed with the BACTEC System 460 (Johnston Laboratories, Towson, Md.) after addition of the antitumor agent to the cells in the respective growth medium containing ^14 C-glucose at a final concentration of 2 μCi/ml. […]
(§9) Two mls of the tumor cell suspension containing radioactive glucose were seeded into sterile, disposable 15 ml vials by injection through self-sealing rubber-aluminum caps. […] Chemotherapy sensitivity was calculated by comparing the growth index values of drug-treated vials to that observed in control vials. […]

COLO320 = experiment: In vitro radiometric (BACTEC) growth inhibition of human tumor cell line COLO320 (colon); assay type: cell-based
From the text: as §1, with “N.Y. […]” for “N.Y.”
as §8, §9

HS578T [3] = experiment: In vitro radiometric (BACTEC) growth inhibition of human tumor cell line HS578T (breast); assay type: cell-based; settings: Hs-578T, 6 μg/ml, read-out: % survival tumor
[4] = background statement on marketed drug; cited from earlier work
[5] = HS578T, continuous exposure, read-out: IC 50
[6] = SKLU, read-out: % survival tumor
[7] = SKLU, continuous exposure, read-out: IC 50
[8] = MCF7, MCF-7, continuous exposure, read-out: IC 50
[9] = OM-1, continuous exposure, read-out: IC 50
[10] = continuous exposure, read-out: IC 50
[11] = 6 μg/ml, read-out: % survival tumor

IC50 (HS578T [2]; [5]): > 10 µg/mL
Structure (SMILES): O=c1ccn([C@H]2OC[C@H](O)[C@H](O)[C@@H]2O)c(=O)[nH]1 [(3), β-L-ribopyranosyluracil]
viability [1]: 96% | viability at 10 µg/mL (HS578T [2]; HS578T): 86.7%

IC50 (SKMES; SKMES, continuous exposure, read-out: IC 50): > 10 µg/mL | IC50 (SKLU; [7]): > 10 µg/mL | IC50 (MCF-7; [8]): > 10 µg/mL
Structure (SMILES): O=c1[nH]c(=O)n([C@H]2OC[C@H](O)[C@H](O)[C@@H]2O)cc1F [(5), β-L-ribopyranosyl-5-fluorouracil]
viability [1]: 116% | viability at 10 µg/mL (SKMES; SKMES, 10 μg/ml, read-out: % survival tumor): 68.2% | viability at 10 µg/mL (SKLU; [6]): 90.1% | viability at 10 µg/mL (MCF-7; read-out: % survival tumor): 76.2%

IC50 (OM-1; [9]): > 10 µg/mL | IC50 (HS578T [2]; [5]): > 10 µg/mL | IC50 (MCF-7; [8]): > 10 µg/mL
Structure (SMILES): Nc1ccn([C@H]2OC[C@H](O)[C@H](O)[C@@H]2O)c(=O)n1 [(8), β-L-ribopyranosylcytosine]
viability [1]: 93.1% | viability at 10 µg/mL (OM-1; read-out: % survival tumor): 78.9% | viability at 10 µg/mL (HS578T [2]; HS578T): 89.2% | viability at 10 µg/mL (MCF-7; read-out: % survival tumor): 72.2%

IC50 (OM-1; [9]): 8.3 µg/mL (≈ 31.1 µM) | IC50 (HS578T [2]; [5]): 7.8 µg/mL (≈ 29.2 µM)
Structure (SMILES): Nc1ncnc2c1ncn2[C@H]1OC[C@H](O)[C@H](O)[C@@H]1O [(11)]
viability [1]: 94.1% | viability at 10 µg/mL (OM-1; read-out: % survival tumor): 41.6% | viability at 10 µg/mL (HS578T [2]; HS578T): 43.6%

IC50 (HT-29; [10]): > 10 µg/mL
Structure (SMILES): Nc1nc2c(ncn2[C@H]2OC[C@H](O)[C@H](O)[C@@H]2O)c(=O)[nH]1 [(14), β-L-ribopyranosylguanine]
viability [1]: 106% | viability at 10 µg/mL (HT-29; read-out: % survival tumor): 94.8%

IC50 (SKLU; [7]): 57.1 µg/mL (≈ 218 µM) | IC50 (HT-29; [10]): 119 µg/mL (≈ 454 µM) | IC50 (OM-1; [9]): 65.1 µg/mL (≈ 248 µM) | IC50 (HS578T [2]; [5]): 50.8 µg/mL (≈ 194 µM)
Structure (SMILES): O=c1[nH]c(=O)n([C@@H]2OC[C@H](O)[C@H](O)[C@@H]2O)cc1F [(18), α-L-ribopyranosyl-5-fluorouracil]
viability [1]: 166% | viability at 10 µg/mL (SKLU; [6]): 78.4% | viability at 10 µg/mL (HT-29; read-out: % survival tumor): 83.1% | viability at 10 µg/mL (OM-1; read-out: % survival tumor): 82.5% | viability at 10 µg/mL (HS578T [2]; HS578T): 83.6%

Structure (SMILES): O=c1[nH]cc(F)c(=O)[nH]1 [Compound 5-FU, 5-fluorouracil, reference compound]
viability at 6 µg/mL (CALU; [11]): 9.9% | IC50 (CALU; continuous exposure): < 0.6 µg/mL | IC50 (SKMES): < 0.6 µg/mL | viability at 6 µg/mL (SKMES; SKMES, 6 μg/ml, read-out: % survival tumor): 29.1% | IC50 (SKLU): 1.05 µg/mL (≈ 8.07 µM) | viability at 6 µg/mL (SKLU; SKLU, 6 μg/ml, read-out: % survival tumor): 24.7% | viability at 6 µg/mL (COLO320; COLO 320, 6 μg/ml, read-out: % survival tumor): 1% | IC50 (COLO320; COLO 320, continuous exposure): < 0.6 µg/mL | IC50 (HT-29): 0.61 µg/mL (≈ 4.69 µM) | viability at 6 µg/mL (HT-29; [11]): 5.7% | IC50 (OM-1): 1.47 µg/mL (≈ 11.3 µM) | viability at 6 µg/mL (OM-1; OM-1, 6 μg/ml, read-out: % survival tumor): 20.1% | IC50 (HS578T [2]): < 0.6 µg/mL | IC50 (MCF-7; MCF7): < 0.6 µg/mL | viability at 6 µg/mL (MCF-7; MCF7, MCF-7, 6 μg/ml, read-out: % survival tumor): 4.2% | viability at 6 µg/mL (HS578T [3]): 12.5% | side effects [4]: GI side effects like nausea, vomiting and diarrhea, leukopenia, thrombocytopenia, alopecia
